According to patent US9045563B2, “CXC chemokine receptor 4 (CXCR4) antagonistic polypeptide” (priority 2007, dated 2015):
Where two headings read alike, the source gives them in different places. Ends that are not written are not given here.

Legend:
[1] = tested on: X4 tropic HIV-1 variants NL4-3, P51-Sc, P59-S/27 and P34-S; details: TZM-bl cells
Protocol: (§1) 5000 TZM-bl cells were seeded in 100 μl of DMEM (10% FCS, 100 U/ml of penicillin G and 100 μg/ml of streptomycin sulfate). ALB408-423 was dissolved in PBS (10 mg/ml). One day later, 20 μl serial dilutions of ALB408-423 in PBS were added to cells and cells were subsequently infected with 0.5 ng of p24 antigen HIV-1 in a total volume of 200 μl. HIV-1 molecular clones differing in coreceptor tropism were used and generated as described (Papkalla et al., J. Virol. 76: 8455-9, 2002).
FIG. 3: Chemically synthesized ALB408-423 specifically blocks X4 tropic HIV-1 infection. TZM-bl cells containing indicated dilutions of peptide were infected with HIV-1 variants differing in their coreceptor tropism. 3 days later Gal Screen assay was used to measure infection rates. […] B) Infection rates in the presence of 500 μg/ml ALB408-423 showing that the peptide specifically blocks X4 but not R5 tropic HIV-1 infection. Data shown are mean values±standard deviation derived from triplicate infections relative to PBS containing cells (100% infection).
After 3 days, infection was detected using GalScreen assay (TROPIX) (example 1). […] In contrast, CCR5 tropic HIV-1 variants were not inhibited even in the presence of very high doses of ALB408-423 (500 μg/ml) (FIG. 3B). Due to the specific inhibition of the infection caused by X4-tropic HIV-1 variants, it is to be assumed that ALB408-423 interacts with the chemokine receptor CXCR4.
Virus stocks were first titrated on TZM-bl cells. Then TZM-bl cells containing 100 μM of peptides were infected with infectivity normalized amounts of X4, dualtropic (X4/R5) or R5 tropic HIV-1.
FIG. 10. ALB408-423 and truncated ALB derivatives specifically block X4 tropic HIV-1 infection. TZM-bl cells either containing PBS or 100 μM of indicated peptides were infected with normalized infectivities of X4, dualtropic or R5 tropic HIV-1 clones. Infection rates were measured 2 days post infection using the GalScreen assay. Shown are mean values (% of PBS treated control)±standard deviations derived from triplicate measurements.

[2] = Isoelectric point of the peptide; format: physicochemical
CXCR1 = target: T1, CXCR1 (Homo sapiens, UniProt P25024); assay: Ca2+ mobilization in HEK EGFP-CXCR1 cells (indo-1); details: 50 μM peptide
T1 sequence (P25024 1-350): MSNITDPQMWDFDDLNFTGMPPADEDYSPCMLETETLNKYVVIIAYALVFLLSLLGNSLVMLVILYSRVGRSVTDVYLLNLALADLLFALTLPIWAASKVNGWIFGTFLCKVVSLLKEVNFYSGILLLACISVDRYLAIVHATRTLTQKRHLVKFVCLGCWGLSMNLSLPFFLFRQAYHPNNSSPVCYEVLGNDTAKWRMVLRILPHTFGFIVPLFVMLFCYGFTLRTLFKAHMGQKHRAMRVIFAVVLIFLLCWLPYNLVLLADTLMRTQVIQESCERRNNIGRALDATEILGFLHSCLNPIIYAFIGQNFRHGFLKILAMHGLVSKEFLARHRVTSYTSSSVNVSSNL
Protocol: Intracellular Ca^2+ release measurement was carried out as described (Palanche et al., 2001, JBC 276:34853-34861; Vollmer et al., 1999, JBC 274:37915-37922) using indo-1 acetoxymethyl ester as the calcium probe. Cellular responses were recorded at 37° C. in stirred 1 mL cuvette with excitation set at 355 nm and emission set at 405 nm and 475 nm using a spectrofluorimeter. The human chemokines CCL5 and CXCL8 were purchased from Becton Dickinson Biosciences (San Jose, Calif.).
Intracellular Ca^2+ responses were measured using a spectrofluorimeter.
Values shown are mean calcium peak responses from duplicate experiments relative to chemokine only treated cells (100%).
Ca^2+ responses were recorded. […] In order to gain insight into compound selectivity, we next characterized the effect of the peptide on calcium responses of various chemokine/receptor pairs.

X4 tropic HIV-1 NL4-3 = details: TZM-bl cells
Protocol: HIV inhibition test were performed by seeding 4000 P4-R5 MAGI cells (P. Charneau et al., J. Mol. Biol. 241: 651, 1994) in 100 μl of DMEM (10% FCS, 100 U/ml penicillin G, and 100 μg/ml streptomycin sulfate). P4-R5 cells are stably transfected with an LTR-lacZ cassette and upon successful infection by HIV-1 will express—galactosidase in a Tat-dependent manner, which can be detected in a chemiluminescence test. On the following day, aliquots of the fractions were added. Therefor the lyophilized fractions were resuspended in 80 μl of DMEM, and 25 μl each thereof was pipetted to P4-R5 cells, incubated at 37° C. for 1 hour and subsequently infected with HIV-1 NL4—3 (1 ng of p24 antigen). Virus stocks were obtained by transient infection of 293T cells with proviral DNA by the calcium phosphate method (CalPhos™ Mammalian Transfection Kit, Clontech). Virus stocks were harvested 48 hours post transfection, filtrated and used for infection. Three days post infection, β-galactosidase activity in infected P4-R5 cells was detected using GalScreen assay (TROPIX) as recommended by the manufacturer. Briefly, supernatant was removed, 40 μl of a 1:1 dilution of PBS/GalScreen+substrate was added, followed by incubation at room temperature for 30 min. Then 30 μl of the lysates were transferred into 96 well lumiplates. Subsequently, the lumines-cence was detected as relative light units per second in a luminometer (Berthold, ORION). From all measurements, the mean β-galactosidase background activity of non-infected control cells was subtracted. % infection values for each infection were calculated relative to no peptide containing controls (100%). The enzyme activities in measurements without ALB408-423 were set at 100%, and all other values were based thereon. The final purification (7th step) was examined under exactly the same conditions in TZM-bl cells (X. Wei et al., Antimicrob. Agents Chemother. 46: 1896, 2002).
1.6 mg of fraction 31 from the 7th step in Example 1 was dissolved in 160 μl of DMEM. Subsequently, 10 μl of serial dilutions of fraction 31 containing ALB408-423 were added to 60 μl of TZM-bl cells (60 μl) and infected with 1 ng of p24 antigen HIV-1 NL4—3 in a total volume of 100 μl. Three days later, infection rates were determined in a GalScreen assay (see Example 1).
as §1
Table 1. Antiviral activity of various ALB fragments against X4 tropic HIV-1 NL4-3 infection. TZM-bl cells containing serial dilutions of synthetic peptides were infected with HIV-1 NL4-3 and infection rates were determined and calculated as described in example 1 and 2 at two days post infection. IC50 values were determined using the GraphPad Prism software package.
Various ALB408-423 derivatives containing N or C terminal deletions or amino acid substitutions (Table 1) were chemically synthesized and lyophilized peptides were dissolved in PBS. The antiviral activity was analyzed in TZM-bl cells using X4 tropic HIV-1 NL4-3 as described (example 4).

[3] = tested on: CCR5 tropic HIV-1 NL4-3 92th014, HIV-1-7312 and SIVmac239; assay: Infection of TZM-bl cells by R5 tropic lentiviruses; format: cell-based, SIV

For “LVRYTKKVPQVSTPTL [ALB408-423, LVRYTKKVPQVSTPTL]”, the “mean IC50 over all analyzed X4-tropic HIV-1 variants” value ([1]; 0.5 ng p24, 3 days, synthetic peptide) was 24.2 µg/mL, the “block of infection by X4 tropic HIV-1 clones (NL4-3, P51-Sc, P34-s)” value ([1]; 100 μM peptide) was “almost completely” and the “isoelectric point (pI)” value [2] was 10.3. The “effect on CXCL8-evoked calcium responses” value (CXCR1; HEK EGFP-CXCR1 cells) was “no effect”, the “agonism: calcium response induced by the peptide alone, CXCR1” value (CXCR1; no chemokine) was “does not induce any calcium response” and the IC50 (X4 tropic HIV-1 NL4-3; read-out: IC50, X4 tropic HIV-1 infection (Example 5), HIV-1 NL4-3) was 10 to 20 µM. The IC50 (X4 tropic HIV-1 NL4-3; read-out: IC50 ± SEM, X4 tropic HIV-1 NL4-3, two days post infection, synthetic peptides) was 7.6 ± 1.2 µM and the “effect on R5 tropic lentiviral infection” value [3] was “no effect”.
